Data from patent US20260285875A1, “INHIBITORS OF PARG” (858 Therapeutics, Inc., priority 2023, published 2026).

Target: T1, cellular PARG (Homo sapiens, UniProt Q86W56)
T1 construct: endogenous in cells; host or cells: HeLa
Experiment: Nuclear PAR accumulation assay (immunofluorescence high-content imaging, MMS-treated HeLa cells)
Type: cell-based
Conditions: 1 hour compound then MMS 50 μg/mL for an additional hour
Outline: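 HeLa cells pretreated with compound for 1 h at 37° C, then given 50 μg/mL MMS for another hour. After methanol fixation, PAR was immunostained with DAPI nuclear counterstain; per-nucleus intensity and percent PAR-positive cells were imaged at 20× (≥1,000 cells/well). IC50 from four-parameter logistic fit.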

T1 sequence (Q86W56 whole entry): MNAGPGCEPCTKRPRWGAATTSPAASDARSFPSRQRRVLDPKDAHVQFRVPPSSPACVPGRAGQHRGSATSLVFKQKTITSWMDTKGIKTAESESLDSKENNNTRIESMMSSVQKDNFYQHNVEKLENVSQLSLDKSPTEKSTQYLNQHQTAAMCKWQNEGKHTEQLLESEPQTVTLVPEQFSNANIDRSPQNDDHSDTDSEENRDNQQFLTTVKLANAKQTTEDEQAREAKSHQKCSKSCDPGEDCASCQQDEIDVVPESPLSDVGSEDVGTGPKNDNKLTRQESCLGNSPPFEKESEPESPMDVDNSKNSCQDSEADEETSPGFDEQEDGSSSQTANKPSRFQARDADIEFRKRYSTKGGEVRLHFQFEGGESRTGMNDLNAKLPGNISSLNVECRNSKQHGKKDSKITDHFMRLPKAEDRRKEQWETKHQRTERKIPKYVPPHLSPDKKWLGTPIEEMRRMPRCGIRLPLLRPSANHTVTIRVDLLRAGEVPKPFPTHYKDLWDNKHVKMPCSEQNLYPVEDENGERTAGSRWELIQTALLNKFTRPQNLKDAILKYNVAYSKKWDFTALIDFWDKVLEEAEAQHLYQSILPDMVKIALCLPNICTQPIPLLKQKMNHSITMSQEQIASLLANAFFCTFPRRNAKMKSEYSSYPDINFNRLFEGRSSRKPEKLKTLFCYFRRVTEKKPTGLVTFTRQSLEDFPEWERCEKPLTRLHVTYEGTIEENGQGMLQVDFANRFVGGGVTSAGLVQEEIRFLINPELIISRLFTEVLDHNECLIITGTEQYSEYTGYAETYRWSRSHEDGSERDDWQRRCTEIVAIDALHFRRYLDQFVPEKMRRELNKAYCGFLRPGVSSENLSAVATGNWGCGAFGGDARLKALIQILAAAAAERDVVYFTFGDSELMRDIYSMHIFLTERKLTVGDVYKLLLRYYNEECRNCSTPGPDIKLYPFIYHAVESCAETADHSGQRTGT

SMILES	IC50
C[C@@H]1CN=C2N(CCCO)C(=O)c3cc(S(=O)(=O)NC4(C)CC4)ccc3N21 [Example 64, (R)-4-(3-hydroxypropyl)-1-methyl-N-(1-methylcyclopropyl)-5-oxo-1,2,4,5-tetrahydroimidazo[1,2-a]quinazoline-7-sulfonamide]	1000 to 10000 nM
C[C@H]1CON=C2N(Cc3cnn(C)c3)C(=O)c3cc(S(=O)(=O)NC4(C)CC4)ccc3N21 [Example 220, (S)-1-methyl-5-((1-methyl-1H-pyrazol-4-yl)methyl)-N-(1-methylcyclopropyl)-6-oxo-1,2,5,6-tetrahydro-[1,2,4]oxadiazino[4,3-a]quinazoline-8-sulfonamide]	100 to 1000 nM
[2H]C([2H])(c1cnn(C)c1)N1C(=O)c2cc(S(=O)(=O)NC3(C)CC3)ccc2N2C1=NC[C@@H]2C#C [Example 90, (S)-1-ethynyl-4-((1-methyl-1H-pyrazol-4-yl)methyl-d2)-N-(1-methylcyclopropyl)-5-oxo-1,2,4,5-tetrahydroimidazo[1,2-a]quinazoline-7-sulfonamide]	100 to 1000 nM
Cn1cc(CN2C(=O)c3cc(S(=O)(=O)NC4(C)CC4)ccc3N3C2=NCC3COc2cccc(Cl)c2)cn1 (centres unmarked) [Example 138, 1-((3-chlorophenoxy)methyl)-4-((1-methyl-1H-pyrazol-4-yl)methyl)-N-(1-methylcyclopropyl)-5-oxo-1,2,4,5-tetrahydroimidazo[1,2-a]quinazoline-7-sulfonamide]	100 to 1000 nM
Cn1cc(CN2C(=O)c3cc(S(=O)(=O)NC4(C)CC4)ccc3N3C2=N[C@H]2CCNC[C@H]23)cn1 [Example 160, (7aS,11aR)-6-((1-methyl-1H-pyrazol-4-yl)methyl)-N-(1-methylcyclopropyl)-5-oxo-5,6,7a,8,9,10,11,11a-octahydropyrido[4′,3′:4,5]imidazo[1,2-a]quinazoline-3-sulfonamide]	100 to 1000 nM
C[C@@H]1CN(c2cc(S(=O)(=O)NC3(C)CC3)cc3c2N2C(=NC[C@H]2C)N(C)C3=O)C[C@@H](C)O1 [Example 126, (R)-9-((2R,6R)-2,6-dimethylmorpholino)-1,4-dimethyl-N-(1-methylcyclopropyl)-5-oxo-1,2,4,5-tetrahydroimidazo[1,2-a]quinazoline-7-sulfonamide]	100 to 1000 nM
COCc1nocc1CN1C(=O)c2cc(S(=O)(=O)NC3(C)CC3)ccc2N2C1=NC[C@H]2C [Example 7, (R)-4-((3-(methoxymethyl)isoxazol-4-yl)methyl)-1-methyl-N-(1-methylcyclopropyl)-5-oxo-1,2,4,5-tetrahydroimidazo[1,2-a]quinazoline-7-sulfonamide]	100 to 1000 nM
[2H]C([2H])(c1cnn(C)c1)N1C(=O)c2cc(S(=O)(=O)NC3(C)CC3)ccc2N2C1=N[C@@H]1C[C@@H](N(C)C)C[C@@H]12 [Example 285, (7aR,9R,10aS)-9-(dimethylamino)-6-((1-methyl-1H-pyrazol-4-yl)methyl-d2)-N-(1-methylcyclopropyl)-5-oxo-6,7a,8,9,10,10a-hexahydro-5H-cyclopenta[4,5]imidazo[1,2-a]quinazoline-3-sulfonamide]	100 to 1000 nM
C[C@@H]1CN=C2N(Cc3cnn(C)c3)C(=O)c3cc(S(=O)(=O)NC4(C)CC4)cc(N4CC(C)(N)C4)c3N21 [Example 74, (R)-9-(3-amino-3-methylazetidin-1-yl)-1-methyl-4-((1-methyl-1H-pyrazol-4-yl)methyl)-N-(1-methylcyclopropyl)-5-oxo-1,2,4,5-tetrahydroimidazo[1,2-a]quinazoline-7-sulfonamide]	1000 to 10000 nM
CN1C(=O)c2cc(S(=O)(=O)NC3(C)CC3)ccc2N2C1=NCC2C#Cc1ccc2cnn(C)c2c1 (centres unmarked) [Example 133, 4-methyl-1-((1-methyl-1H-indazol-6-yl)ethynyl)-N-(1-methylcyclopropyl)-5-oxo-1,2,4,5-tetrahydroimidazo[1,2-a]quinazoline-7-sulfonamide]	< 100 nM
Cn1cc(CN2C(=O)c3cc(S(=O)(=O)NC4(C)CC4)ccc3N3C2=NC[C@H]3C(F)F)cn1 [Example 47, (S)-1-(difluoromethyl)-4-((1-methyl-1H-pyrazol-4-yl)methyl)-N-(1-methylcyclopropyl)-5-oxo-1,2,4,5-tetrahydroimidazo[1,2-a]quinazoline-7-sulfonamide]	< 100 nM
CN1C(=O)c2cc(S(=O)(=O)NC3(C)CC3)ccc2N2C1=NCC2C#Cc1cnn(C)c(=O)c1 (centres unmarked) [Example 175, 4-methyl-1-((1-methyl-6-oxo-1,6-dihydropyridazin-4-yl)ethynyl)-N-(1-methylcyclopropyl)-5-oxo-1,2,4,5-tetrahydroimidazo[1,2-a]quinazoline-7-sulfonamide]	< 100 nM
C[C@@H]1CN=C2N(Cc3cn(C)nc3C(F)F)C(=O)c3cc(S(=O)(=O)NC4(C)CC4)ccc3N21 [Example 24, (R)-4-((3-(difluoromethyl)-1-methyl-1H-pyrazol-4-yl)methyl)-1-methyl-N-(1-methylcyclopropyl)-5-oxo-1,2,4,5-tetrahydroimidazo[1,2-a]quinazoline-7-sulfonamide]	< 100 nM
CCN1C(=O)c2cc(S(=O)(=O)NC3(C)CC3)ccc2N2C1=NC[C@H]2C#Cc1cn(C)nc1C [Example 265, (R)-1-((1,3-dimethyl-1H-pyrazol-4-yl)ethynyl)-4-ethyl-N-(1-methylcyclopropyl)-5-oxo-1,2,4,5-tetrahydroimidazo[1,2-a]quinazoline-7-sulfonamide]	< 100 nM
Cn1cc(CN2C(=O)c3cc(S(=O)(=O)NC4(C)CC4)ccc3N3C2=NC[C@H]3C#Cc2cnnn2C)cn1 [Example 166, (R)-1-((1-methyl-1H-1,2,3-triazol-5-yl)ethynyl)-4-((1-methyl-1H-pyrazol-4-yl)methyl)-N-(1-methylcyclopropyl)-5-oxo-1,2,4,5-tetrahydroimidazo[1,2-a]quinazoline-7-sulfonamide]	< 100 nM
Cn1cc(CN2C(=O)c3cc(S(=O)(=O)NC4(C)CC4)ccc3N3C2=NC[C@H]3C#CC2(N)CC2)cn1 [Example 124, (R)-1-((1-aminocyclopropyl)ethynyl)-4-((1-methyl-1H-pyrazol-4-yl)methyl)-N-(1-methylcyclopropyl)-5-oxo-1,2,4,5-tetrahydroimidazo[1,2-a]quinazoline-7-sulfonamide]	< 100 nM
Cn1cc(CN2C(=O)c3cc(S(=O)(=O)NC4(C)CC4)ccc3N3C2=NC[C@H]3C#C[C@H]2CCCN2)cn1 [Example 248, (R)-4-((1-methyl-1H-pyrazol-4-yl)methyl)-N-(1-methylcyclopropyl)-5-oxo-1-(((R)-pyrrolidin-2-yl)ethynyl)-1,2,4,5-tetrahydroimidazo[1,2-a]quinazoline-7-sulfonamide]	100 to 1000 nM
[2H]C([2H])(c1cnn(C)c1)N1C(=O)c2cc(S(=O)(=O)NC3(C)CC3)c(NC)cc2N2C1=N[C@H]1CCC[C@H]12 [Example 222, (7aS,10aR)-6-((1-methyl-1H-pyrazol-4-yl)methyl-d2)-2-(methylamino)-N-(1-methylcyclopropyl)-5-oxo-6,7a,8,9,10,10a-hexahydro-5H-cyclopenta[4,5]imidazo[1,2-a]quinazoline-3-sulfonamide]	< 100 nM

The next lines start with the values.

IC50	SMILES
< 100 nM	CN1C(=O)c2cc(S(=O)(=O)NC3(C)CC3)ccc2N2C1=NC[C@H]2C#Cc1ccc2nn(C)cc2c1 [Example 142, (R)-4-methyl-1-((2-methyl-2H-indazol-5-yl)ethynyl)-N-(1-methylcyclopropyl)-5-oxo-1,2,4,5-tetrahydroimidazo[1,2-a]quinazoline-7-sulfonamide]
< 100 nM	[2H]C([2H])(c1cnn(C)c1)N1C(=O)c2cc(S(=O)(=O)NC3(C)CC3)ccc2N2C1=NC[C@H]2C#Cc1cncnc1NC [Example 263, (R)-4-((1-methyl-1H-pyrazol-4-yl)methyl-d2)-1-((4-(methylamino)pyrimidin-5-yl)ethynyl)-N-(1-methylcyclopropyl)-5-oxo-1,2,4,5-tetrahydroimidazo[1,2-a]quinazoline-7-sulfonamide]
< 100 nM	Cn1cc(CN2C(=O)c3cc(S(=O)(=O)NC4(C)CC4)ccc3N3C2=NC[C@H]3C#Cc2ncccn2)cn1 [Example 68, (R)-4-((1-methyl-1H-pyrazol-4-yl)methyl)-N-(1-methylcyclopropyl)-5-oxo-1-(pyrimidin-2-ylethynyl)-1,2,4,5-tetrahydroimidazo[1,2-a]quinazoline-7-sulfonamide]
< 100 nM	[2H]C([2H])([2H])n1nccc1C#C[C@@H]1CN=C2N(Cc3cnn(C)c3)C(=O)c3cc(S(=O)(=O)NC4(C)CC4)ccc3N21 [Example 211, (R)-4-((1-methyl-1H-pyrazol-4-yl)methyl)-1-((1-(methyl-d3)-1H-pyrazol-5-yl)ethynyl)-N-(1-methylcyclopropyl)-5-oxo-1,2,4,5-tetrahydroimidazo[1,2-a]quinazoline-7-sulfonamide]
< 100 nM	C#CC1(C)CN=C2N(Cc3cnn(C)c3)C(=O)c3cc(S(=O)(=O)NC4(C)CC4)ccc3N21 (single isomer, unassigned) [Example 272, 1-ethynyl-1-methyl-4-((1-methyl-1H-pyrazol-4-yl)methyl)-N-(1-methylcyclopropyl)-5-oxo-1,2,4,5-tetrahydroimidazo[1,2-a]quinazoline-7-sulfonamide]
< 100 nM	CN1C(=O)c2cc(S(=O)(=O)NC3(C)CC3)ccc2N2C1=NC[C@H]2C#Cc1cnn(C)c1 [Example 130, (R)-4-methyl-1-((1-methyl-1H-pyrazol-4-yl)ethynyl)-N-(1-methylcyclopropyl)-5-oxo-1,2,4,5-tetrahydroimidazo[1,2-a]quinazoline-7-sulfonamide]
< 100 nM	Cn1cc(CN2C(=O)c3cc(S(=O)(=O)NC4(C)CC4)ccc3N3C2=NC[C@H]3c2ccccc2)cn1 [Example 144, (R)-4-((1-methyl-1H-pyrazol-4-yl)methyl)-N-(1-methylcyclopropyl)-5-oxo-1-phenyl-1,2,4,5-tetrahydroimidazo[1,2-a]quinazoline-7-sulfonamide]
< 100 nM	CN1C(=O)c2cc(S(=O)(=O)NC3(C)CC3)ccc2N2C1=NC[C@H]2C#Cc1c2ccccc2nn1C [Example 174, (R)-4-methyl-1-((2-methyl-2H-indazol-3-yl)ethynyl)-N-(1-methylcyclopropyl)-5-oxo-1,2,4,5-tetrahydroimidazo[1,2-a]quinazoline-7-sulfonamide]
